# Assay results from patent US20240207247A1, “METHODS FOR THE COMBINED ADMINISTRATION OF DEUTETRABENAZINE AND A CYP2D6 INHIBITOR” (Neurocrine Biosciences, Inc., priority 2021, published 2024).
# Key:
# [1] = Phase 1 open-label 2-sequence crossover single-dose pharmacokinetic study of deutetrabenazine metabolites; assay type: in vivo, human (healthy male and female subjects); conditions: share of total DHTBZ exposure after single dose deutetrabenazine 24 mg, healthy subjects
# Protocol: A phase 1, open-label, 2-sequence crossover study was conducted to evaluate the HTBZ PK profile following administration of valbenazine (40 mg) or deutetrabenazine (24 mg) to a total of 18 healthy male and female subjects. Subjects received a single dose of valbenazine 40 mg on Day 1 and a single dose of deutetrabenazine 24 mg on Day 16; or received a single dose of deutetrabenazine 24 mg on Day 1 and a single dose of valbenazine 40 mg on Day 16. Valbenazine 40 mg was administered as one 40 mg capsule and deutetrabenazine 24 mg was administered as two 12 mg tablets. Study drug was administered at approximately 0800 hours, approximately 30 minutes after the start of a standard breakfast. […] PK parameters were determined using non-compartmental analysis with Phoenix WinNonlin 8.3 software. The in vitro pharmacology of the deuterated HTBZ metabolites was assessed using competitive radioligand binding assays.
# [2] = paroxetine 20 mg daily for 8 days, then single 22.5 mg dose of deutetrabenazine; 24 healthy subjects; cited from earlier work
SMILES,AUC (% of Total) [1],increase in mean half-life in the presence of paroxetine [2]
[2H]C([2H])([2H])Oc1cc2c(cc1OC([2H])([2H])[2H])[C@H]1C[C@@H](O)[C@H](CC(C)C)CN1CC2 [[+]-α-DHTBZ],2%,
"[2H]C([2H])([2H])Oc1cc2c(cc1OC([2H])([2H])[2H])[C@H]1C[C@H](O)[C@H](CC(C)C)CN1CC2 [[+]-β-DHTBZ, (+)-β-3-isobutyl-9,10-di(methoxy-d3)-1,3,4,6,7,11b-hexahydro-2H-pyrido[2,1-a]isoquinolin-2-ol]",29%,
"[2H]C([2H])([2H])Oc1cc2c(cc1OC([2H])([2H])[2H])[C@@H]1C[C@H](O)[C@@H](CC(C)C)CN1CC2 [[−]-α-DHTBZ, (−)-α-3-isobutyl-9,10-di(methoxy-d3)-1,3,4,6,7,11b-hexahydro-2H-pyrido[2,1-a]isoquinolin-2-ol]",66%,
"[2H]C([2H])([2H])Oc1cc2c(cc1OC([2H])([2H])[2H])[C@@H]1C[C@@H](O)[C@@H](CC(C)C)CN1CC2 [[−]-β-DHTBZ, (−) -β-3-isobutyl-9,10-di(methoxy-d3)-1,3,4,6,7,11b-hexahydro-2H-pyrido[2,1-a]isoquinolin-2-ol]",3%,
COc1cc2c(cc1OC)[C@@H]1C[C@H](O)[C@@H](CC(C)C)CN1CC2 [α-DHTBZ],,approximately 1.5 fold
